Laboratory results reported in article PMC3126777, “Selective anticancer activity of a hexapeptide with sequence homology to a non-kinase domain of Cyclin Dependent Kinase 4” (Molecular Cancer, 2011).
Entries after “also recorded” stand apart in the source; their conditions may differ.

Experiments:
[1] = system: RT112 human bladder cancer cells; assay: Time lapse photomicrography, RT112; type: cell-based; details: RT112, 200 μM THR53, Ham's F12 + 10% FCS
Description: Progressive morphological changes in dying H460 cells exposed to 200 μM THR53 [additional file 1], contrasted with progressive cell division in untreated H460 cells [additional file 2] are shown as videos. Immortalised MRC5-hTERT fibroblasts, were unaffected by exposure to 200 μM THR53 except for some generalised slowing of growth (Figure 5A), [additional file 3] as compared to control, untreated, MRC5-hTERT cells [additional file 4]. RT112 cells were more sensitive to THR53 than H460 cells and died within 30 - 40 hours as compared to 96 hours for H460 and the majority of other human cancer cell lines investigated.
Figure 5 Time Lapse Photomicrography of MRC5-hTERT, RT112 human bladder cancer and […] human non-small cell lung cancer following exposure toTHR53. Cells were incubated in Ham's F12 + 10% FCS (control medium) or medium + 200 μM THR53. Morphological changes of vacuolation + cellar swelling are seen in RT112 at 33 hours after exposure to THR53 and in H460 at 90 hours after exposure to THR53. There was no evidence of cell blebbing or fragmentation. (see also videos)

[2] = system: RT112 human bladder cancer and H460 human non-small lung cancer cell lines; assay: Cell killing by cyclic amphiphilic peptides (viability and clonogenic survival); type: cell-based
Source text: Attempts to limit proteolysis and improve cell uptake, by incorporating the hexameric peptide sequence into cyclic peptide cassettes were undertaken, initially without success (Table 3,X-XIII). Linear constructs attaching PRGPRP to a known cell-internalising amphiphilic sequence were also unsuccessful (Table 3,XIV and 3XV). […] Selective toxicity to these cancer cell lines, and not normal fibroblasts, was retained (Table 4).
(§1) All cell lines were from certified sources.

[3] = system: MRC5-hTERT immortalised fibroblasts; assay: Necrosis assay by Trypan Blue exclusion, MRC5-hTERT; type: cell-based
Description: (§2) Necrosis Assay Cells were plated in triplicate in 96 well plates at concentrations of 500 cells per well (HT1299, MCF-7) or 1000 cells per well (H460, MRC5-hTERT) in the presence or absence of the relevant compound and assessed by Trypan Blue exclusion At 2,3,4 and 7 days after plating. To assay, cells were trypsinised off, stained with trypan blue in isotonic medium and live and dead cells separately counted visually by haemocytomter. Each data point is the mean of results from triplicate wells (Solid lines - Live cells, Broken lines - Dead Cells; Blue - Control, Red - THR53 200 μM).

[4] = system: normal diploid human keratinocytes; assay: Morphological cytotoxicity in primary keratinocyte cultures; type: cell-based; details: 200 μM THR53 (Figure 2B)
Description: (§3) The appearances of the disintegrating colonies in Figure 4B were not dissimilar to those of "starbursts" earlier reported in human in vitro cancer cell colonies undergoing spontaneous cell death. Table 5 lists 11 cell lines with complete response to 200 μM THR53. This relatively homogeneous therapeutic response to the same critical dose of THR53 markedly contrasts with the wide range of variability of in-vitro dose response of different cancer cell lines typically seen with conventional chemotherapeutic agents In addition to showing lack of toxicity towards normal human diploid fibroblasts, THR53 and related cyclic amphiphilic PRGPRP-containing peptides were not cytotoxic to normal diploid human keratinocytes growing as primary cultures (Figure 2B) or to MRC5-hTERT immortalised fibroblasts (Figures 4A and 5A).

[5] = system: H460 cells; assay: Cell cycle phase distribution (DNA histograms); type: cell-based, human
Source text: Cell death, however, was not dependent on cell division in MCF-7, RT112 or H460. […] had no effect on cell cycle phase distribution in H460 cells (Figure 6B) and […] hexapeptide cancer cell killing was unrelated to endogenous levels of Cdk4 or Cyclin D1. […] A. Macroscopic appearances of cycling […]-treated MCF-7 human breast cancer cells in medium + 10% FCS (left hand panels) compared to the same cells held outside the cell cycle in medium + 0.1%FCS (right hand panel) B. […] C. Sequential Western blots of Cdk1 and Cdk4 expression in RT112 human bladder cancer cells at 0 - 10 days after exposure to 5 mM linear, end-capped, […].

[6] = system: MGHU-1 Carcinoma Bladder; assay: Response of cancer cell line to 200 μM THR53 (morphology, clonogenic assay); type: cell-based, human; details: MGHU-1, 200 μM; morphological changes at 5 days, clonogenic assays at 15 days
Description: as §3, §1

[7] = system: G361 Melanoma; assay: as above; type: cell-based, human; details: G361, 200 μM; morphological changes at 5 days, clonogenic assays at 15 days
Description: as §3, §1

[8] = Preliminary pharmacokinetic experiments; type: in vivo; details: maximum tolerated dose, species not given
[9] = system: NCI-H460 cells; assay: Mitochondrial function (alamar blue); type: cell-based, human; details: H460, 100 μM THR53, up to 96 hours, Alamar Blue
Description: Mitochondrial function (alamar blue) NCI-H460 cells were grown in Ham's F12 media supplemented with 10% FCS. Cells were harvested and added to 96-well plates at densities of 250-1000. Compounds were made up from stock solutions and added directly to cells at the concentrations indicated. Cells were grown with compound for the indicated time at 37°C, 5% CO2, in a humidified atmosphere. Alamar Blue 10% (v/v) was then added and incubated for a further 4 h, and fluorescent product detected using the BMG FLUOstar plate reader. The media only background was subtracted and the data analysed as appropriate.

[10] = system: Cdk1 and Cdk4 expression in H460 human non-small cell lung cancer cells; assay: Western blotting of Cdk1 and Cdk4 expression, H460; type: cell-based; details: H460, 200 μM, 24 hours, Western blot
Source text: This co-expression is unaffected by cytocidal doses of cisdiamminedichloroplatinum but can accompany spontaneous cancer cell death. Whether or not Cdk1/Cdk4 co-expression remained constant in cancer cells dying as a result of exposure to PRGPRP was thus examined by Western blotting.
as §1

[11] = system: NCI-H460 cells; assay: Cellular ATP levels (CellTiter-Glo assay); type: cell-based, human; details: H460, 100 μM THR53, between 48 and 96 hours, CellTiter-Glo luminescence
Description: Cellular ATP levels (CellTiter-Glo assay) Cells were grown, seeded and compound-treated as for the alamar Blue assay. A volume of the CellTiter-Glo reagent equal to the volume of cell culture media was added to the cells. Plates were mixed for 2 min on an orbital shaker to induce cell lysis before the plate was incubated at room temperature for 10 min to stabilize the signal. The luminescent signal was measured and the media only background was subtracted.

[12] = system: H460 human non-small cell lung cancer cells; assay: Necrosis assay by Trypan Blue exclusion, H460; type: cell-based
Description: as §2

[13] = system: MCF-7 human breast cancer cells; assay: Necrosis assay by Trypan Blue exclusion, MCF-7; type: cell-based
Description: as §2

Cyc-[FPPRGPRPVKLALKLALK] (head to tail) [THR53, cyclic amphiphilic analogue, Cyc-[…]]
time at which morphological changes of vacuolation + cellular swelling are seen [1]: 33 hours | time to cell death [1]: 30 to 40 h | improvement in selective cancer cell cytotoxicity ([2]; cyclic amphiphilic cassettes compared with the earlier PRGPRP peptides): fifty- to a hundred-fold improvement | time at which cell killing reached a maximum ([2]; for the majority of cell lines): ≤ 4 days | cytotoxicity to MRC5-hTERT immortalised fibroblasts ([3]; 200 μM (Figures 4A and 5A)): not cytotoxic | necrosis / viability by trypan blue exclusion ([3]; MRC5-hTERT, 200 μM, 2, 3, 4 and 7 days after plating, triplicate wells): unaffected; also recorded: not in MRC5-h-TERT immortalised fibroblasts | cytotoxicity to normal diploid human keratinocytes [4]: not cytotoxic | effect on cell cycle phase distribution [5]: no effect | response to THR53 [6]: total cell death | response to THR53 [7]: total cell death | plasma levels [8]: low plasma levels which were not persistent | mitochondrial oxidation/reduction [9]: without change | Cdk4 expression [10]: complete disappearance | ATP levels [11]: progressive diminution | day at which necrotic cells are initially detectable ([12]; H460, 200 μM): 3 days | necrosis detected by trypan blue uptake ([12]; H460, 200 μM, 2, 3, 4 and 7 days after plating, triplicate wells): induces necrosis | day at which necrotic cells are initially detectable ([13]; MCF-7, 200 μM): 3 days | necrosis detected by trypan blue uptake ([13]; MCF-7, 200 μM, 2, 3, 4 and 7 days after plating, triplicate wells): induces necrosis
